Assay results: US9968649B2, “Vasopressin formulations for use in treatment of hypotension” (Par Pharmaceutical, Inc., priority 2015, dated 2018)
Several values for one entry are separate records, joined by “and”; a condition that tells them apart may be missing. Identical values can stand only once.

Experiment: Effect of temperature on vasopressin formulations: HPLC vasopressin assay and impurities on storage (Example 8)
Format: physicochemical
Protocol: To analyze degradation products of vasopressin that can be present in an illustrative formulation of vasopressin, gradient HPLC was performed to separate vasopressin from related peptides and formulation components. TABLE 2 below depicts the results of the experiment detailing the chemical formula, relative retention time (RRT), molar mass, and structure of vasopressin and detected impurities.
Vasopressin was detected in the eluent using UV absorbance. The concentration of vasopressin in the sample was determined by the external standard method, where the peak area of vasopressin in sample injections was compared to the peak area of vasopressin reference standards in a solution of known concentration. The concentrations of related peptide impurities in the sample were also determined using the external standard method, using the vasopressin reference standard peak area and a unit relative response factor. An impurities marker solution was used to determine the relative retention times of identified related peptides at the time of analysis.
To test the effect of temperature on the stability of vasopressin formulation, solutions containing 20 units/mL vasopressin and chlorobutanol, adjusted to pH 3.5 with acetic acid, were prepared. One mL of each vasopressin formulations was then filled into 3 cc vials. Each Vasopressin Formulation was stored either inverted or upright for at least three months, up to 24 months, at: (i) 5° C.; (ii) 25° C. and 60% relative humidity; or (iii) 40° C. and 75% humidity, and the amount of vasopressin (U/mL) and % total impurities were measured periodically. TABLES 7-12 below display the results of the experiments at 5° C. The results of the experiments at 25° C. are included in TABLES 13-18. All of the experiments were performed in triplicate. The results of the experiments at 40° C. are included in TABLES 19-24. For each temperature tested, three lots of the vasopressin formulation were stored for 24 months (5° C. and 25° C.) and 3 months (40° C.), and measurements were taken at regular intervals during the testing periods. “NMT” as used in the tables denotes “not more than.”
Experiments were also conducted on the same samples above over the course of the experiments to measure the amount of individual impurities in the samples, pH of the samples, chlorobutanol content, particulate matter, antimicrobial effectiveness, and bacterial endotoxin levels (TABLES 25-42). (NR=no reading; ND=not determined; UI=unidentified impurity).

[1] = Upright, 40° C. (75% humidity), 1 month
[2] = Upright, 40° C. (75% humidity), 2 months
[3] = Upright, 40° C. (75% humidity), 3 months
[4] = Upright, 40° C. (75% humidity), Initial
[5] = inverted, 5° C., 1 month, listed as AVP
[6] = inverted, 5° C., 2 months, listed as AVP
[7] = inverted, 5° C., 3 months, listed as AVP
[8] = inverted, 5° C., 6 months, listed as AVP
[9] = inverted, 5° C., 9 months, listed as AVP
[10] = inverted, 5° C., 12 months, listed as AVP
[11] = inverted, 5° C., 18 months, listed as AVP
[12] = inverted, 5° C., 24 months, listed as AVP

NC(=O)CC[C@@H]1NC(=O)[C@H](Cc2ccccc2)NC(=O)[C@H](Cc2ccc(O)cc2)NC(=O)[C@@H](N)CSSC[C@@H](C(=O)N2CCC[C@H]2C(=O)N[C@@H](CCCN=C(N)N)C(=O)NCC(N)=O)NC(=O)[C@H](CC(N)=O)NC1=O [Vasopressin, Cyclo (1-6) L-Cysteinyl-L-Tyrosyl-L-Phenylalanyl-L-Glutaminyl-L-Asparaginyl-L-Cysteinyl-L-Prolyl-L-Arginyl-L-Glycinamide]
effect of upright or inverted storage position on stability: did not markedly affect the stability | Total Impurities [1]: 3.6% and 3.5% | Vasopressin Assay [1]: 18.9 U/mL and 19.2 U/mL | Total Impurities [2]: 7.2% | Vasopressin Assay [2]: 18.5 U/mL and 18.7 U/mL and 18.3 U/mL | Total Impurities [3]: 10.3% | Vasopressin Assay [3]: 17.2 U/mL and 17.4 U/mL and 17.5 U/mL | Total Impurities [4]: 1.1% and 1.3% | Vasopressin Assay [4]: 19.8 U/mL and 20.1 U/mL and 19.9 U/mL | Related Substances: Acetyl-AVP (inverted, 5° C., 1 month): 0.2% and 0.3% | Related Substances: Asp5-AVP (inverted, 5° C., 1 month): 0.1% | Related Substances: SEQ ID NO.: 2 (inverted, 5° C., 1 month): 0.5% | Related Substances: SEQ ID NO.: 4 (inverted, 5° C., 1 month): 0.6% and 0.5% | Related Substances: SEQ ID NO.: 10 (inverted, 5° C., 1 month): 0.3% | Related Substances: UI-0.75-0.78 (inverted, 5° C., 1 month): 0.2% | Related Substances: UI-0.83-0.84 (inverted, 5° C., 1 month): 0.1% | Related Substances: UI-1.02-1.03 (inverted, 5° C., 1 month): 0.2% | Related Substances: UI-1.03 (inverted, 5° C., 1 month): 0.2% | Vasopressin (AVP) Assay (inverted, 5° C., 1 month): 19.4 U/mL and 19.7 U/mL | Total Impurities [5]: 2.0% and 2.2% and 1.9% | Vasopressin (AVP) Assay [5]: 19.4 U/mL and 19.7 U/mL | Related Substances: Acetyl-AVP (inverted, 5° C., 2 months): 0.3% | Related Substances: Asp5-AVP (inverted, 5° C., 2 months): 0.1% | Related Substances: SEQ ID NO.: 2 (inverted, 5° C., 2 months): 0.6% and 0.5% | Related Substances: SEQ ID NO.: 4 (inverted, 5° C., 2 months): 0.6% and 0.5% | Related Substances: SEQ ID NO.: 10 (inverted, 5° C., 2 months): 0.3% | Related Substances: UI-0.75-0.78 (inverted, 5° C., 2 months): 0.2% | Related Substances: UI-0.83-0.84 (inverted, 5° C., 2 months): 0.1% | Related Substances: UI-0.84 (inverted, 5° C., 2 months): 0.1% | Related Substances: UI-1.02-1.03 (inverted, 5° C., 2 months): 0.2% | Related Substances: UI-1.03 (inverted, 5° C., 2 months): 0.2% | Related Substances: UI-2.05 (inverted, 5° C., 2 months): 0.1% | Vasopressin (AVP) Assay (inverted, 5° C., 2 months): 19.4 U/mL and 19.7 U/mL and 19.6 U/mL | Total Impurities [6]: 2.1% and 2.3% and 2.0% | Vasopressin (AVP) Assay [6]: 19.4 U/mL and 19.7 U/mL and 19.6 U/mL | Related Substances: Acetyl-AVP (inverted, 5° C., 3 months): 0.3% | Related Substances: Asp5-AVP (inverted, 5° C., 3 months): 0.1% | Related Substances: SEQ ID NO.: 2 (inverted, 5° C., 3 months): 0.6% and 0.5% | Related Substances: SEQ ID NO.: 4 (inverted, 5° C., 3 months): 0.7% and 0.6% | Related Substances: SEQ ID NO.: 10 (inverted, 5° C., 3 months): 0.4% | Related Substances: UI-0.75-0.78 (inverted, 5° C., 3 months): 0.2% | Related Substances: UI-1.02-1.03 (inverted, 5° C., 3 months): 0.3% | Related Substances: UI-1.03 (inverted, 5° C., 3 months): 0.3% | Related Substances: UI-1.76 (inverted, 5° C., 3 months): 0.1% | Vasopressin (AVP) Assay (inverted, 5° C., 3 months): 19.3 U/mL and 19.7 U/mL | Total Impurities [7]: 2.3% and 2.4% and 2.2% | Vasopressin (AVP) Assay [7]: 19.3 U/mL and 19.7 U/mL | Related Substances: Acetyl-AVP (inverted, 5° C., 6 months): 0.2% and 0.3% | Related Substances: Asp5-AVP (inverted, 5° C., 6 months): 0.1% | Related Substances: SEQ ID NO.: 2 (inverted, 5° C., 6 months): 0.6% and 0.5% | Related Substances: SEQ ID NO.: 4 (inverted, 5° C., 6 months): 0.7% and 0.6% | Related Substances: SEQ ID NO.: 10 (inverted, 5° C., 6 months): 0.3% | Related Substances: UI-0.83-0.84 (inverted, 5° C., 6 months): 0.1% | Related Substances: UI-1.02-1.03 (inverted, 5° C., 6 months): 0.2% | Related Substances: UI-1.03 (inverted, 5° C., 6 months): 0.2% | Vasopressin (AVP) Assay (inverted, 5° C., 6 months): 19.5 U/mL and 19.9 U/mL and 19.8 U/mL | Total Impurities [8]: 2.2% and 2.1% and 2.0% | Vasopressin (AVP) Assay [8]: 19.5 U/mL and 19.9 U/mL and 19.8 U/mL | Related Substances: Acetyl-AVP (inverted, 5° C., 9 months): 0.2% and 0.3% | Related Substances: Asp5-AVP (inverted, 5° C., 9 months): 0.1% | Related Substances: SEQ ID NO.: 2 (inverted, 5° C., 9 months): 0.6% | Related Substances: SEQ ID NO.: 4 (inverted, 5° C., 9 months): 0.7% | Related Substances: SEQ ID NO.: 10 (inverted, 5° C., 9 months): 0.3% | Related Substances: UI-0.75-0.78 (inverted, 5° C., 9 months): 0.1% | Related Substances: UI-1.02-1.03 (inverted, 5° C., 9 months): 0.2% | Related Substances: UI-1.03 (inverted, 5° C., 9 months): 0.2% | Vasopressin (AVP) Assay (inverted, 5° C., 9 months): 19.4 U/mL and 19.7 U/mL | Total Impurities [9]: 2.3% and 2.1% | Vasopressin (AVP) Assay [9]: 19.4 U/mL and 19.7 U/mL | Related Substances: Acetyl-AVP (inverted, 5° C., 12 months): 0.3% | Related Substances: Asp5-AVP (inverted, 5° C., 12 months): 0.2% and 0.1% | Related Substances: SEQ ID NO.: 2 (inverted, 5° C., 12 months): 0.7% and 0.6% | Related Substances: SEQ ID NO.: 4 (inverted, 5° C., 12 months): 0.8% and 0.7% | Related Substances: SEQ ID NO.: 10 (inverted, 5° C., 12 months): 0.4% | Related Substances: UI-0.75-0.78 (inverted, 5° C., 12 months): 0.2% | Related Substances: UI-1.02-1.03 (inverted, 5° C., 12 months): 0.3% | Related Substances: UI-1.03 (inverted, 5° C., 12 months): 0.3% | Vasopressin (AVP) Assay (inverted, 5° C., 12 months): 19.5 U/mL and 19.8 U/mL and 19.9 U/mL | Total Impurities [10]: 2.6% and 2.7% and 2.4% | Vasopressin (AVP) Assay [10]: 19.5 U/mL and 19.8 U/mL and 19.9 U/mL | Related Substances: Acetyl-AVP (inverted, 5° C., 18 months): 0.3% | Related Substances: Asp5-AVP (inverted, 5° C., 18 months): 0.2% | Related Substances: SEQ ID NO.: 2 (inverted, 5° C., 18 months): 0.8% | Related Substances: SEQ ID NO.: 4 (inverted, 5° C., 18 months): 0.9% and 0.8% | Related Substances: SEQ ID NO.: 10 (inverted, 5° C., 18 months): 0.4% | Related Substances: UI-0.75-0.78 (inverted, 5° C., 18 months): 0.2% | Related Substances: UI-1.02-1.03 (inverted, 5° C., 18 months): 0.3% | Related Substances: UI-1.03 (inverted, 5° C., 18 months): 0.3% | Vasopressin (AVP) Assay (inverted, 5° C., 18 months): 19.4 U/mL and 19.7 U/mL and 19.8 U/mL | Total Impurities [11]: 2.9% and 2.6% | Vasopressin (AVP) Assay [11]: 19.4 U/mL and 19.7 U/mL and 19.8 U/mL | Related Substances: Acetyl-AVP (inverted, 5° C., 24 months): 0.3% | Related Substances: Asp5-AVP (inverted, 5° C., 24 months): 0.2% | Related Substances: SEQ ID NO.: 2 (inverted, 5° C., 24 months): 0.9% and 0.8% | Related Substances: SEQ ID NO.: 4 (inverted, 5° C., 24 months): 1.0% and 0.9% | Related Substances: SEQ ID NO.: 10 (inverted, 5° C., 24 months): 0.3% | Related Substances: UI-0.75-0.78 (inverted, 5° C., 24 months): 0.2% | Related Substances: UI-0.83-0.84 (inverted, 5° C., 24 months): 0.1% | Related Substances: UI-1.02-1.03 (inverted, 5° C., 24 months): 0.3% and 0.2% | Related Substances: UI-1.03 (inverted, 5° C., 24 months): 0.2% | Related Substances: UI-1.67 (inverted, 5° C., 24 months): 0.2% | Vasopressin (AVP) Assay (inverted, 5° C., 24 months): 19.3 U/mL and 19.5 U/mL | Total Impurities [12]: 2.9% and 2.8% | Vasopressin (AVP) Assay [12]: 19.3 U/mL and 19.5 U/mL
